“Also recorded” adds a separate entry of the source. One block for each molecule: values may come before it.
Tests used:
[1] = system: granule cells of the dentate gyrus; experiment: GABAergic activity (sIPSCs), whole-cell patch-clamp in acute brain slices; type: cell-based, mouse; details: for GABAergic activity (in words): Sortilin −/− mouse brain slices
Protocol: FIG. 8: Neuronal GABA activity is increased in Sortilin and SorCS2 −/− mice, and can be rescued by BDNF. A, model describing how dentate gyrus granule cells are under powerful inhibitory control by GABAergic basket cells. The basket cell excitability is in turn depressed by BDNF released from the granule cells (Holm et al. Submitted, 2008) B, the GABAergic activity was assessed by electrophysiological recordings from single neurons in an in vitro mouse brain slice preparation (P16-P20). In each experimental condition, the frequency of spontaneous inhibitory postsynaptic currents (sIPSCs) was measured in Hz. In control mice (wildtype, WT) the GABAergic activity was 2.96±0.53 Hz (n=33 cells). In Sortilin −/− (Sortilin KO) mice, this activity increased to 6.15±0.80 Hz (n=25 cells). In rescue experiments, exogenous BDNF (20 ng/ml) reversed the GABA activity of Sortilin KO mice back to WT levels, reaching 2.66±1.4 Hz (n=3 cells). For comparison, the GABAergic activity in SorCS2 −/− (SorCS2 KO) mice was 5.68±0.7 Hz (n=6), highlighting the importance of Vps10p proteins in these inhibitory cell functions. Error bars indicate S.E.M.
3-4 week wildtype and Sortilin deficient mice were examined for neurophysiological in vitro correlates of anxiety/depression like behavior. In fresh 350 μm thick brain slices, inhibitory GABAergic synaptic input to hippocampal granule cells were quantified in living tissues. Electrophysiological patch-clamp recordings were carried out from acute brain slices from WT, Sortilin and Sorcs2 knockout (KO) mice. Following deep isoflurane anesthesia, male mice were sacrifized and the brain was carefully dissected out and cooled. 350 um thick brain slices were cut on a Vibratome 3000 Plus, and the tissue rested in O2/CO2 bubbled Ringer solution for at least 1 hour before experimentation (Drasbek and Jensen 2006). Whole-cell patch-clamp recordings were carried out at 33° C. from the soma of identified granule cells of the dentate gyrus (Jensen and Mody 2001). Under conditions of blocked glutamatergic excitation, GABAergic activity was apparent as spontaneous inhibitory postsynaptic currents (sIPSCs) that could be blocked by the GABAA receptor antagonist SR95531 (100 μM). For each cell, the frequency of sIPSCs was analyzed and frequencies were pooled within each experimental group. In rescue experiments, BDNF (brain-derived neurotrophic factor, 20 ng/ml) was perfused to the brain slice for at least 5 min and the GABAergic activity was assessed. […] Subsequently, the pathophysiological neuronal activity was restored in Sortilin deficient mouse brain slices by administering exogenous brain-derived neurotrophic factor (BDNF 20 ng/ml) to the tissue bathing solution (FIG. 8B).

[2] = system: patient suffering from a mental and behavioural disorder; experiment: Passive delivery device implanted into the brain of a patient with a mental and behavioural disorder (Examples 18, 19); type: in vivo, human; details: device for passive delivery surgically implanted into the brain
Source text: (§1) The soluble domain of human Sortilin is expressed recombinantly at a large scale in a mammalian cell culture and is subsequently purified by for example immunoaffinity chromatography. A device for passive delivery containing purified soluble Sortilin is surgically implanted into the brain of a patient suffering from a mental and behavioural disorder. Good effect is obtained and the patient is set on lifelong treatment.
as §1, with “chromatography. Similarly, proBDNF is expressed and purified at a large scale. Soluble Sortilin and proBDNF is incubated together to form a preformed Sortilin:proBDNF complex.” for “chromatography.”, “preformed Sortilin:proBDNF” for “soluble Sortilin”

[3] = system: Sortilin −/− hippocampal CA1 synapses; experiment: NMDA receptor-dependent LTD in Sortilin −/− hippocampal slices (f-EPSP recording); type: cell-based, mouse; details: 40 ng/ml for at least 1 h before recording and throughout, LFS 1 Hz, 15 min
Protocol: FIG. 3: Impaired NMDA receptor-dependent LTD in Sortilin −/− and SorCS1 −/− mice. A, lack of LTD in sortilin −/− hippocampal CA1 synapses by the application of LFS (1 Hz, 15 min) to the Schaffer collaterals. In wt hippocampal CA1 synapses a LFS induces synaptic depression. B, rescue of NMDA receptor-dependent LTD in Sortilin −/− hippocampal CA1 synapses by cleavage-resistant proBDNF. […] LFS (1 Hz, 15 min) was applied to the Schaffer collaterals. In Sortilin −/− hippocampal slices incubated with control vehicle the LTD was still impaired. C, a similar experiment showing rescue of NMDA receptor-dependent LTD in sortilin −/− hippocampal CA1 synapses by 40 ng/ml purified soluble Sortilin. D, a similar experiment showing lack of LTD in SorCS1 −/− hippocampal CA1 synapses. […]
SorCS2 −/− mice were backcrossed onto a C57BL/6 background for more than ten generations and wild type C57BL/6 mice were used as control. […] After a recovery period of at least two h, the slices were moved to an interface chamber exposed to a humidified atmosphere of 95% O2 and 5% CO2 and we recorded field Exitatory Post-Synaptic Potentials (f-EPSP) using an Axoclamp-2B amplifier (Axon Instruments) with an artificial cerebral spinal fluid (ACSF; in mM: 126 NaCl, 2.5 KCl, 1.25 NaH2PO4, 2.5 CaCl2, 1.3 MgCl2, 10 D-glucose)-filled glass microelectrode (10-15 MΩ) positioned in the stratum radiatum of hippocampal area CA1. […]

Molecule: Br.COc1ccc(-c2ccc(=N)n(CCCC(=O)O)n2)cc1 [SR95531, reference compound]
- spontaneous inhibitory postsynaptic currents (sIPSCs) ([1]; 100 μM, blocked glutamatergic excitation): blocked

- NMDA receptor-dependent LTD [3]: rescued
- NMDA receptor-dependent LTD ([3]; listed as recombinant soluble Sortilin): rescued
Molecule: soluble Sortilin: purified soluble Sortilin, the luminal (Vps10p-domain) part of the receptor
- effect of treatment in the patient [2]: Good effect

B1: mature BDNF: mature brain-derived neurotrophic factor (protein)
chain: HSDPARRGELSVCDSISEWVTAADKKTAVDMSGGTVTVLEKVPVSKGQLKQYFYETKCNPMGYTKEGCRGIDKRHWNSQCRTTQSYVRALTMDSKKRIGWRFIRIDTSCVCTLTIKRGR
- frequency of spontaneous inhibitory postsynaptic currents (sIPSCs) ([1]; Sortilin KO mouse brain slices, 20 ng/ml, n=3 cells): 2.66±1.4 Hz
- GABAergic activity (in words) ([1]; 20 ng/ml): restored
- GABAergic activity (in words) ([1]; 20 ng/ml, listed as exogenous BDNF): normalizes; also recorded: reversed

Reference: US8703125B2, “Modulation of the Vps10p-domain receptor family for the treatment of mental and behavioural disorders” (H. Lundbeck A/S, priority 2008, dated 2014)
